Legend:
[1] = test system: ovarian (MDAH2774) cancer cells; assay: Protein transfection efficiency by flow cytometry; assay type: cell-based, human; conditions: transfected using HEPES buffer (20-30 mM)
Procedure: FIG. 1 depicts the method of protein transfection in its simplest form: (A) proteins of interest and a protein transfection composition, such as HEPES buffer, are mixed and incubated for about 15 min to about 30 min (“the first incubation time”) to form a mixture. (B) Cells to be transfected are cultured with a first cultured medium comprising at least about 10% fetal bovine serum for about 24 hours, followed by the replacement of the first cultured medium with a minimal essential medium. (C) The mixture in step (A) is added to the cells in minimal essential medium in Step (B) and incubated at 37° C. for about 4 to about 24 hours (“the second incubation time”). (D) The protein transfection efficiency can be analyzed using various methods, such as immunofluorescent staining and flow cytometry. Flow cytometry: After protein transfection was completed, the cells in the culture dish were washed with PBS, trypsinized and pelleted. The cells were mixed with Fixation/Permeabilization (eBioscience, Inc., San Diego, Calif., USA) working solution and incubated at 4° C. for 30 min to 24 h. […] Cells were suspended in 1×PBS and analyzed by flow cytometry (BD Biosciences, Qume Drive San Jose, Calif., USA). […] The protein transfection efficiency can be analyzed using immunofluorescent staining or flow cytometry (Panel D). […]

[2] = test system: human ovarian cancer cells (MDAH2774); assay: Protein transfection, immunofluorescent staining / confocal microscopy; assay type: cell-based; conditions: transfected using 20-30 mM HEPES buffer
Procedure: Immunofluorescent staining procedure: After protein transfection is completed, the cells in the culture dish were washed three times with phosphate buffered saline (PBS) and fixed with 4% paraformaldehyde for 20 min. The cells were washed again with PBS, perforated with 0.1% Triton X-100 for 5 min, and blocked with 10% BSA for 30 min. For Alexa Fluor 488 anti-mouse IgGs, cells were stained with DAPI for 10 min. For B23, histone 1 or GAPDH antibody transfection, cells were stained with Alexa Fluor 488 or 546 anti-mouse IgG antibodies for 30 min and then stained with DAPI. For rhSTIP1 proteins or Flag-Rev peptides transfection, cells were stained with anti-v5 or anti-flag antibodies, respectively, and then stained with Alexa Fluor 488 anti-mouse IgG and DAPI. All images were detected by confocal microscopes (Leica, Wetzlar, Germany). The fluorescent signals were analyzed and quantified by Q-Win software (Leica, Wetzlar, Germany).
FIG. 1 schematically illustrates the protein transfection procedure. Briefly, the protein of interest and a protein transfection composition, such as HEPES buffer, were mixed and incubated for about 15 min to about 30 min to form a mixture (Panel A). Cells to be transfected were replaced in a minimal essential medium (Panel B). The mixture in Panel A was added to the cells in Panel B and incubated at 37° C. for about 4 to about 24 hours (Panel C). The protein transfection efficiency can be analyzed using immunofluorescent staining or flow cytometry (Panel D).
An in vitro evaluation of the optimal protein transfection condition was performed. According to the steps in FIG. 1. rhSTIP1 was incubated with HEPES buffers of different concentrations (5 or 20 mM) or Opti-MEM (control) at room temperature for about 15 minutes to form the protein mixtures to transfect human ovarian cancer cells. The mixtures were added to the cell culture dish comprising Opti-MEM and incubated at 37° C. for about 4 to about 24 hours.
Different amounts of Alexa Fluor® 488 anti-mouse IgG (0, 2, 4, 8, or 16 μg) were incubated with 20 mM HEPES buffer and mixed with ovarian (MDAH2774) cancer cells in Opti-MEM.
Alexa Fluor 488 anti-mouse IgG antibodies were mixed with 20 mM HEPES to form a mixture. […] Protein transfection efficiency was assessed using confocal fluorescent microscope.
The following proteins were incubated with Opti-MEM (control group) or 20-30 mM HEPES buffer to transfect ovarian cancer cells (MDAH2774 or MOSEC) or endometrial cancer cells: Alexa Fluor 488-conjugated, anti-mouse IgG antibody (about 150 kDa), anti-B23 antibody, anti-histone 1 antibody, anti-STIP1 antibody, rhSTIP1 protein (62.6 kDa), Flag-Rev peptide (<5 kDa) and FITC-Rev peptide (<5 kDa). […] Protein transfection efficiency was assessed by staining the transfected cancer cells with Alexa Fluor 488 or 594 anti-mouse IgG antibodies (for Alexa Fluor 488-conjugated anti-mouse IgG antibody, anti-B23 antibody, anti-histone 1 antibody, anti-STIP1 antibody), v5 antibody (for rhSTIP1), or anti-Flag antibody (for Flag-Rev peptide), and fluorescent signals were analyzed with confocal microscopy.
The protein transfection efficiency of HEPES was compared to other commercial reagents, such as PULsin™, ProteoJuice™, Pro-Ject™, Xfect™, and BioPORTER®. […] The transfected ovarian cancer cells were stained with Alexa Fluor 488 anti-mouse IgG antibodies and protein transfection efficiency was assessed by confocal fluorescent microscopy.

rhSTIP1: v5-tagged recombinant human STIP1 protein (BiP-STIP1-V5-His), 62.6 kDa
transfection efficiency: signal detected in % of the ovarian cancer cells [1]: 99.6%
fluorescent signal of transfected protein (confocal microscopy) [2]: detected

From patent US20180221487A1, “NOVEL PROTEIN TRANSFECTION COMPOSITIONS AND USES THEREOF” (Chang Gung Memorial Hospital, Linkou, priority 2017, published 2018)
